The test system of assay [1] is C. albicans E81022 strain. Description: Anti-Candida activity, MIC measurement (broth dilution, visual inspection). Particulars: C. albicans E81022, RPMI1640, 48 hours at 35° C.; for MIC: Candida albicans, E81022STRAIN, read-out: Anti-Candida activity (minimum growth inhibitory concentration, MIC). Format: cell-based. As for the experimental part:
(§1) For the C. albicans E81022 strain, a fungal suspension from a standing culture 48 hours at 30° C. in a Sabouraud dextrose liquid culture medium (SDB) was diluted 10000-fold with 1.3-times concentrated RPMI1640 medium to prepare a fungal suspension containing 1 to 2×10^4 cells/ml. For the A. fumigatus Tsukuba strain, −80° C. stored strain was diluted 1000-fold with 1.3-times concentrated RPMI1640 medium to prepare a fungal suspension containing 2 to 3×10^3 cells/ml.
(§2) Using a U-shaped bottomed 96-well plates, 8 samples/plate (A to H) of sample dilution solutions were prepared. On the first row was dispensed 240 μl of sterile distilled water, and on the 2nd to 12th row were dispersed 125 μL of 4% dimethylsulfoxide solution. Weighed sample was dissolved in dimethylsulfoxide to prepare a 5 mg/ml solution followed by adding 10 μL of the solutions to the first row of the prepared plates and preparing 12-step serial 2-fold dilutions (125 μL of solution+125 μL of 4% dimethylsulfoxide solution) on the plates.
(§3) The fungal suspension prepared in (1) was used in the amount of 75 μL/well to inoculate the flat-bottomed 96-well plates containing 25 μL/well of the test compound prepared in (2), and a standing culture was carried out aerobically for 48 hours at 35° C.
For orientation: Broth dilution looks for growth in wells or tubes with falling amounts of substance.

The subject of assay [2] is A. fumigatus Tsukuba strain. Description: Anti-Aspergillus activity, MIC measurement (broth dilution, visual inspection). It is filed as cell-based. Particulars: RPMI1640, 48 hours at 35° C., read-out: Anti-Aspergillus activity (minimum growth inhibitory concentration, MIC). As for the experimental part:
as §1, §2, §3

Converted amounts (≈) assume the structure as drawn.

In the case of “2,6-Diamino-N-(6-(2-phenoxy-ethoxy)-benzofuran-2-ylmethyl)-nicotinamide [Example 80]”, the “Anti-Candida activity (minimum growth inhibitory concentration, MIC)” value in assay [1] amounted to 3.13 µg/mL. Regarding `CC#CCOc1ccc2cc(CNC(=O)c3ccc(N)nc3N)oc2c1` [Example 8, 2,6-Diamino-N-(6-but-2-ynyloxy-benzofuran-2-ylmethyl)-nicotinamide], the MIC in assay [1] came out at 1.56 µg/mL (≈ 4.45 µM). Regarding `CCCCCOc1ccc2cc(CNC(=O)c3ccc(N)nc3N)oc2c1` [Example 12, 2,6-Diamino-N-(6-pentyloxy-benzofuran-2-ylmethyl)-nicotinamide], the MIC was 0.78 µg/mL (≈ 2.12 µM) in assay [1] and 1.56 µg/mL (≈ 4.23 µM) in assay [2].

As to `CC(C)COc1ccc2cc(CNC(=O)c3ccc(N)nc3N)oc2c1` [Example 13, 2,6-Diamino-N-(6-isobutoxy-benzofuran-2-ylmethyl)-nicotinamide], the values for the MIC in assay [1] and in assay [2] were 0.39 µg/mL (≈ 1.1 µM) and 1.56 µg/mL (≈ 4.4 µM), respectively.

Regarding `CC(C)CCOc1ccc2cc(CNC(=O)c3ccc(N)nc3N)oc2c1` [Example 14, 2,6-Diamino-N-(6-(3-methyl-butoxy)-benzofuran-2-ylmethyl)-nicotinamide], in assay [1], the MIC amounted to 1.56 µg/mL (≈ 4.23 µM). In the case of `CC(C)(C)COc1ccc2cc(CNC(=O)c3ccc(N)nc3N)oc2c1` [Example 16, 2,6-Diamino-N-(6-(2,2-dimethyl-propoxy)-benzofuran-2-ylmethyl)-nicotinamide], the values for the MIC in assay [1] and in assay [2] were 3.13 µg/mL (≈ 8.5 µM) and 6.25 µg/mL (≈ 17 µM), respectively. In the case of `CC(C)=CCOc1ccc2cc(CNC(=O)c3ccc(N)nc3N)oc2c1` [Example 17, 2,6-Diamino-N-(6-(3-methyl-but-2-enyloxy)-benzofuran-2-ylmethyl)-nicotinamide], the MIC in assay [1] worked out at 0.78 µg/mL (≈ 2.13 µM). Take `Nc1ccc(C(=O)NCc2cc3ccc(OCc4cccc(F)c4)cc3o2)c(N)n1` [Example 22, 2,6-Diamino-N-(6-(3-fluoro-benzyloxy)-benzofuran-2-ylmethyl)-nicotinamide]: the MIC in assay [1] came out at 0.39 µg/mL (≈ 0.96 µM); in assay [2] it was 1.56 µg/mL (≈ 3.84 µM).

Regarding `Nc1ccc(C(=O)NCc2cc3ccc(OCc4ccccc4F)cc3o2)c(N)n1` [Example 23, 2,6-Diamino-N-(6-(2-fluoro-benzyloxy)-benzofuran-2-ylmethyl)-nicotinamide], in assay [1], the “Anti-Candida activity (minimum growth inhibitory concentration, MIC)” value turned out to be 1.56 µg/mL. Take `COCc1ccc(C(=O)NCc2cc3ccc(OC)cc3o2)c(N)n1` [Example 24, 2-Amino-N-(6-methoxy-benzofuran-2-ylmethyl)-6-methoxymethyl-nicotinamide]: the MIC in assay [1] turned out to be 6.25 µg/mL (≈ 18.3 µM); in assay [2], 3.13 µg/mL (≈ 9.17 µM).

With `CCCCOc1ccc2cc(CNC(=O)c3ccc(COC)nc3N)oc2c1` [Example 25, 2-Amino-N-(6-butoxy-benzofuran-2-ylmethyl)-6-methoxymethyl-nicotinamide], the MIC in assay [1] was determined as 0.78 µg/mL (≈ 2.03 µM). In the case of `CCC(C)COc1ccc2cc(CNC(=O)c3ccc(COC)nc3N)oc2c1` (stereo not drawn) [Example 29, 2-Amino-6-methoxymethyl-N-(6-(2-methyl-butoxy)-benzofuran-2-ylmethyl)-nicotinamide], the MIC came to 1.56 µg/mL (≈ 3.92 µM) in assay [1] and 6.25 µg/mL (≈ 15.7 µM) in assay [2]. On to `COCc1ccc(C(=O)NCc2cc3ccc(OCC4CCCCO4)cc3o2)c(N)n1` (stereo not drawn) [Example 33, 2-Amino-6-methoxymethyl-N-(6-(tetrahydro-pyran-2-ylmethoxy)-benzofuran-2-ylmethyl)-nicotinamide], for which the MIC in assay [1] worked out at 12.5 µg/mL (≈ 29.4 µM). Take `CCCOc1ccc2cc(CNC(=O)c3ccc(COC)nc3N)oc2c1` [Example 37, 2-Amino-6-methoxymethyl-N-(6-propoxy-benzofuran-2-ylmethyl)-nicotinamide]: the MIC in assay [1] is 0.2 µg/mL (≈ 0.541 µM). With `CC=CCOc1ccc2cc(CNC(=O)c3ccc(COC)nc3N)oc2c1` [Example 38, 2-Amino-N-(6-but-2-enyloxy-benzofuran-2-ylmethyl)-6-methoxymethyl-nicotinamide], the MIC was found to be 0.39 µg/mL (≈ 1.02 µM) in assay [1] and 0.78 µg/mL (≈ 2.04 µM) in assay [2]. As to `C#CCOc1ccc2cc(CNC(=O)c3ccc(COC)nc3N)oc2c1` [Example 39, 2-Amino-6-methoxymethyl-N-(6-prop-2-ynyloxy-benzofuran-2-ylmethyl)-nicotinamide], the MIC in assay [1] and in assay [2] was 1.56 µg/mL (≈ 4.27 µM) throughout. In the case of `COCCOc1ccc2cc(CNC(=O)c3ccc(COC)nc3N)oc2c1` [Example 40, 2-Amino-N-(6-(2-methoxy-ethoxy)-benzofuran-2-ylmethyl)-6-methoxymethyl-nicotinamide], the MIC in assay [1] and in assay [2] was 3.13 µg/mL (≈ 8.12 µM) each time. For the compound `CCOCCOc1ccc2cc(CNC(=O)c3ccc(COC)nc3N)oc2c1` [Example 41, 2-Amino-N-(6-(2-ethoxy-ethoxy)-benzofuran-2-ylmethyl)-6-methoxymethyl-nicotinamide], the MIC in assay [1] came to 3.13 µg/mL (≈ 7.84 µM). Take `COCc1ccc(C(=O)NCc2cc3ccc(OCc4ccccc4F)cc3o2)c(N)n1` [Example 42, 2-Amino-N-(6-(2-fluoro-benzyloxy)-benzofuran-2-ylmethyl)-6-methoxymethyl-nicotinamide]: the MIC in assay [1] amounted to 1.56 µg/mL (≈ 3.58 µM); in assay [2] it was 3.13 µg/mL (≈ 7.19 µM). For `COCc1ccc(C(=O)NCc2cc3ccc(OCc4cccc(F)c4)cc3o2)c(N)n1` [Example 43, 2-Amino-N-(6-(3-fluoro-benzyloxy)-benzofuran-2-ylmethyl)-6-methoxymethyl-nicotinamide], the values for the MIC in assay [1] and in assay [2] were 0.78 µg/mL (≈ 1.79 µM) and 6.25 µg/mL (≈ 14.4 µM), respectively.

For `COCc1ccc(C(=O)NCc2cc3ccc(OCc4ccccn4)cc3o2)c(N)n1` [Example 44, 2-Amino-6-methoxymethyl-N-(6-(pyridin-2-ylmethoxy)-benzofuran-2-ylmethyl)-nicotinamide], the MIC in assay [1] is 0.78 µg/mL (≈ 1.86 µM); in assay [2], 6.25 µg/mL (≈ 14.9 µM). For `COCc1ccc(C(=O)NCc2cc3ccc(OCc4cccnc4)cc3o2)c(N)n1` [Example 45, 2-Amino-6-methoxymethyl-N-(6-(pyridin-3-ylmethoxy)-benzofuran-2-ylmethyl)-nicotinamide], the MIC in assay [1] and in assay [2] was 12.5 µg/mL (≈ 29.9 µM) in each case. On to `COCc1ccc(C(=O)NCc2cc3ccc(OCc4ccncc4)cc3o2)c(N)n1` [Example 46, 2-Amino-6-methoxymethyl-N-(6-(pyridin-4-ylmethoxy)-benzofuran-2-ylmethyl)-nicotinamide], for which, in assay [1], the MIC was found to be 0.39 µg/mL (≈ 0.932 µM). For the compound `COCc1ccc2cc(CNC(=O)c3ccc(COC)nc3N)oc2c1` [Example 47, 2-Amino-6-methoxymethyl-N-(6-methoxymethyl-benzofuran-2-ylmethyl)-nicotinamide], the MIC in assay [1] was found to be 0.78 µg/mL (≈ 2.19 µM); in assay [2] it was 1.56 µg/mL (≈ 4.39 µM).

In the case of `COCc1ccc(C(=O)NCc2cc3ccc(Oc4ccccc4)cc3o2)c(N)n1` [Example 49, 2-Amino-6-methoxymethyl-N-(6-phenoxy-benzofuran-2-ylmethyl)-nicotinamide], the results for the MIC in assay [1] and in assay [2] were 0.39 µg/mL (≈ 0.967 µM) and 6.25 µg/mL (≈ 15.5 µM), respectively. Regarding `Nc1ccc(C(=O)NCc2cc3cc(OCc4ccccc4)ccc3o2)c(N)n1` [Example 51, 2,6-Diamino-N-(5-benzyloxy-benzofuran-2-ylmethyl)-nicotinamide], the MIC in assay [1] amounted to 0.2 µg/mL (≈ 0.515 µM); in assay [2] it was 0.78 µg/mL (≈ 2.01 µM). In the case of `C=CCOc1ccc2oc(CNC(=O)c3ccc(N)nc3N)cc2c1` [Example 52, N-(5-Allyloxy-benzofuran-2-ylmethyl)-2,6-diamino-nicotinamide], the values for the MIC in assay [1] and in assay [2] were 1.56 µg/mL (≈ 4.61 µM) and 0.78 µg/mL (≈ 2.31 µM), respectively.

In the case of `Nc1ccc(C(=O)NCc2cc3cc(OCC4CC4)ccc3o2)c(N)n1` [Example 53, 2,6-Diamino-N-(5-cyclopropylmethoxy-benzofuran-2-ylmethyl)-nicotinamide], the MIC in assay [1] and in assay [2] was 6.25 µg/mL (≈ 17.7 µM) in each case. As for `C=CCOc1ccc2oc(CNC(=O)c3ccc(COC)nc3N)cc2c1` [Example 54, N-(5-Allyloxy-benzofuran-2-ylmethyl)-2-amino-6-methoxymethyl-nicotinamide], the MIC in assay [1] came out at 1.56 µg/mL (≈ 4.25 µM); in assay [2] it was 0.39 µg/mL (≈ 1.06 µM). As to `CCCCc1ccc2oc(CNC(=O)c3ccc(COC)nc3N)cc2c1` [Example 57, 2-Amino-N-(5-butyl-benzofuran-2-ylmethyl)-6-methoxymethyl-nicotinamide], the MIC turned out to be 6.25 µg/mL (≈ 17 µM) in assay [1] and 1.56 µg/mL (≈ 4.25 µM) in assay [2]. As to `Nc1ncccc1C(=O)NCc1cc2ccc(OCc3ccccc3)cc2o1` [Example 58, 2-Amino-N-(6-benzyloxy-benzofuran-2-ylmethyl)-nicotinamide], the MIC was 0.1 µg/mL (≈ 0.268 µM) in assay [1] and 1.56 µg/mL (≈ 4.18 µM) in assay [2]. For the compound `CCOc1ccc2cc(CNC(=O)c3cccnc3N)oc2c1` [Example 59, 2-Amino-N-(6-ethoxy-benzofuran-2-ylmethyl)-nicotinamide], the MIC in assay [1] was found to be 0.78 µg/mL (≈ 2.51 µM); in assay [2], 3.13 µg/mL (≈ 10.1 µM). For the compound `COCc1ccc(C(=O)NCc2cc3ccc(OCC4CC4)cc3[nH]2)c(N)n1` [Example 73, 2-Amino-N-(6-cyclopropylmethoxy-1H-indol-2-ylmethyl)-6-methoxymethyl-nicotinamide], in assay [2], the MIC is 25 µg/mL (≈ 65.7 µM). Take `COCc1ccc(C(=O)NCc2cc3cc(Br)ccc3o2)c(N)n1` [Example 79, 2-Amino-N-(5-bromo-benzofuran-2-ylmethyl)-6-methoxymethyl-nicotinamide]: the MIC in assay [2] came to 12.5 µg/mL (≈ 32 µM). As for `CCOCc1ccc2oc(CNC(=O)c3ccc(COC)nc3N)cc2c1` [Example 81, 2-Amino-N-(5-ethoxymethyl-benzofuran-2-ylmethyl)-6-methoxymethyl-nicotinamide], the MIC in assay [2] was 6.25 µg/mL (≈ 16.9 µM).

These data come from US7829585B2, “Antifungal agent containing pyridine derivative” (Eisai R&D Management Co., Ltd., priority 2005, dated 2010).
